Measurements: ChEMBL document CHEMBL1144683, “Design, synthesis and antiproliferative properties of oligomers with chromophore units linked by amide backbones” (Bioorg Med Chem Lett, 2008)
pIC50: −log10 of the molar value. Activity calls are given as the source filed them. The rule behind the calls is not given here.

Legend:
[1] = system: GLC-4S; assay: (§1) Antiproliferative activity against human GLC-4S cells by MTT assay; type: functional, cell-based
[2] = system: Jurkat; assay: Antiproliferative activity against human Jurkat E6-1 cells by MTT assay; type: functional, cell-based
[3] = Antiproliferative activity against mouse NIH-3T3 cells by MTT assay; type: cell-based, NIH3T3; conditions: for Activity: mouse, nih3t3; for pIC50: Mus musculus, NIH3T3
[4] = as §1; type: functional, cell-based

SMILES	pIC50 [2]	Activity [1]	Activity [2]	Activity [3]	pIC50 [4]	pIC50 [3]
COC(=O)CNC(=O)c1c2ccccc2nc2ccccc12	–	inactive	inactive	Not Active	–	–
CC(=O)N[C@H]1C[C@@H](C(=O)N[C@H]2C[C@@H](C(=O)N[C@H]3C[C@@H](C(N)=O)N(C(=O)CNC(=O)c4c5ccccc5nc5c4[nH]c4ccccc45)C3)N(C(=O)CNC(=O)c3c4ccccc4nc4ccccc34)C2)N(C(=O)CNC(=O)c2c3ccccc3nc3c2[nH]c2ccccc23)C1	3.95	–	–	–	4.09	3.58
O=C(O)CNC(=O)c1c2ccccc2nc2ccccc12	–	inactive	inactive	Not Active	–	–
CC(=O)N[C@H]1C[C@@H](C(=O)N[C@H]2C[C@@H](C(N)=O)N(C(=O)CNC(=O)c3c4ccccc4nc4ccccc34)C2)N(C(=O)CNC(=O)c2c3ccccc3nc3ccccc23)C1	3.83	–	–	Not Active	3.87	–
CC(=O)N[C@H]1C[C@@H](C(=O)N[C@H]2C[C@@H](C(N)=O)N(C(=O)CNC(=O)c3c4ccccc4nc4ccccc34)C2)N(C(=O)CNC(=O)c2c3ccccc3nc3c2[nH]c2ccccc23)C1	3.92	–	–	Not Active	3.78	–
CC(=O)N[C@H]1C[C@@H](C(=O)N[C@H]2C[C@@H](C(=O)N[C@H]3C[C@@H](C(N)=O)N(C(=O)CNC(=O)c4c5ccccc5nc5ccccc45)C3)N(C(=O)CNC(=O)c3c4ccccc4nc4ccccc34)C2)N(C(=O)CNC(=O)c2c3ccccc3nc3c2[nH]c2ccccc23)C1	3.89	–	–	–	3.77	3.45
CC(=O)N[C@H]1C[C@@H](C(=O)NC2C[C@@H](C(=O)NC3C[C@@H](C(N)=O)N(C(=O)CNC(=O)c4c5ccccc5nc5ccccc45)C3)N(C(=O)CNC(=O)c3c4ccccc4nc4ccccc34)C2)N(C(=O)CNC(=O)c2c3ccccc3nc3ccccc23)C1 (some centres not stated)	–	–	inactive	Not Active	3.87	–

More lines, main results first:

pIC50 [2]	SMILES	Activity [1]	Activity [2]	Activity [3]	pIC50 [4]	pIC50 [3]
4.92	O=C(O)CNC(=O)c1c2ccccc2nc2c1[nH]c1ccccc12	inactive	–	Not Active	–	–
4.07	CC(=O)N[C@H]1C[C@@H](C(=O)N[C@H]2C[C@@H](C(=O)N[C@H]3C[C@@H](C(N)=O)N(C(=O)CNC(=O)c4c5ccccc5nc5c4[nH]c4ccccc45)C3)N(C(=O)CNC(=O)c3c4ccccc4nc4ccccc34)C2)N(C(=O)CNC(=O)c2c3ccccc3nc3ccccc23)C1	–	–	–	3.76	3.37
4.06	CC(=O)N[C@H]1C[C@@H](C(=O)N[C@H]2C[C@@H](C(=O)N[C@H]3C[C@@H](C(N)=O)N(C(=O)CNC(=O)c4c5ccccc5nc5ccccc45)C3)N(C(=O)CNC(=O)c3c4ccccc4nc4c3[nH]c3ccccc34)C2)N(C(=O)CNC(=O)c2c3ccccc3nc3ccccc23)C1	–	–	Not Active	4.04	–
4.43	CC(=O)N[C@H]1C[C@@H](C(=O)N[C@H]2C[C@@H](C(N)=O)N(C(=O)CNC(=O)c3c4ccccc4nc4c3[nH]c3ccccc34)C2)N(C(=O)CNC(=O)c2c3ccccc3nc3c2[nH]c2ccccc23)C1	–	–	Not Active	4.27	–
5.10	COC(=O)CNC(=O)c1c2ccccc2nc2c1[nH]c1ccccc12	inactive	–	Not Active	–	–
3.99	CC(=O)N[C@H]1C[C@@H](C(=O)N[C@H]2C[C@@H](C(=O)N[C@H]3C[C@@H](C(N)=O)N(C(=O)CNC(=O)c4c5ccccc5nc5c4[nH]c4ccccc45)C3)N(C(=O)CNC(=O)c3c4ccccc4nc4c3[nH]c3ccccc34)C2)N(C(=O)CNC(=O)c2c3ccccc3nc3ccccc23)C1	–	–	–	3.82	3.64
4.04	CC(=O)N[C@H]1C[C@@H](C(=O)N[C@H]2C[C@@H](C(N)=O)N(C(=O)CNC(=O)c3c4ccccc4nc4c3[nH]c3ccccc34)C2)N(C(=O)CNC(=O)c2c3ccccc3nc3ccccc23)C1	–	–	–	3.90	3.42
